Measured values reported in paper PMC10743929, “Amphiphilic Sialic Acid Derivatives as Potential Dual-Specific Inhibitors of Influenza Hemagglutinin and Neuraminidase” (International Journal of Molecular Sciences, 2023).
Entries after “also recorded” stand apart in the source; their conditions may differ. Read-outs that look alike come from different tables or passages of the source. Marks after values point to notes of the source that are not given here.

Key:
[1] = test system: hemagglutinin; conditions: cited from earlier work
[2] = target: H3N2 Hemagglutinin (Influenza A virus, UniProt P03437); test: SPR affinity toward immobilized H3N2 hemagglutinin; format: binding, influenza type H3N2 (A/Aichi/2/1968); conditions: for Kd: KD(app)
Description: (§1) SPR experiments were conducted using a BIAcore S200 instrument (Cytiva, Marlborough, MA, USA) employing a CM5 chip with a carboxymethyldextran surface (Cytiva, USA). Hemagglutinins (ThermoFisher Scientific, Invitrogen, Waltham, MA, USA) from influenza type H3N2 (A/Aichi/2/1968) and H1N1 (A/Puerto Rico/8/34), as well as neuraminidase (Invitrogen, USA) from H1N1 (A/California/04/2009), were immobilized on the chip surface following the standard amine coupling procedure outlined in the manufacturer’s instructions. This immobilization process was performed at a flow rate of 10 μL/min using PBST as the running buffer. The chip surface was initially activated using an N-ethyl-N-(3-dimethylaminopropyl)carbodiimide/N-hydroxysuccinimide solution. Subsequently, 50 μg/mL solutions of individual proteins in 10 mM sodium acetate, pH 5, were injected into channels 2, 3, and 4, respectively. To block any unreacted groups, all channels were treated with 1 M ethanolamine, resulting in a final response of 4500 RU for HAs and 2700 RU for neuraminidase. Channel 1 was activated and blocked in the same manner, without the injection of any protein, serving as a blank.
(§2) Tested compounds in a PBST working buffer (20 mM Na-phosphate, 150 mM NaCl, pH 7.4, 0.005% Tween 20, 5% DMSO) were injected into the chip at a flow rate of 30 μL/min at 25 °C. The injection duration was 3 min, followed by a 10 min buffer flow to facilitate spontaneous dissociation. Each compound was injected as a two-fold dilution series within a concentration range of 0.78–800 μM (2.44–2500 μM for sialic acid). After each compound concentration series, five buffer injections were performed to ensure complete dissociation. To determine the apparent KD toward the immobilized proteins, the steady-state responses of the blank-subtracted curves from each replicate were fitted using a single-site binding model.
(§3) In experiments conducted in a DMSO-free buffer (20 mM Na-phosphate, 150 mM NaCl, pH 7.4, 0.005% Tween 20), each replicate was followed by a two-fold dilution series of DMSO, matching the DMSO concentration in the compound solutions. In this case, the steady-state response of the blank-subtracted curve was corrected by the corresponding blank-subtracted DMSO steady-state response. The final values from each replicate were fitted using a single-site binding model using Origin 7 (OriginLab Corporation, Northampton, MA, USA).
(§4) For all experiments, the final KD(app) and Rmax values, along with their standard deviations, were obtained through statistical analysis based on three replicates.

[3] = test system: influenza A strains; test: Anti-influenza activity against influenza A strains (H1N1 and H3N2) in MDCK cells; format: cell-based, influenza A virus (H1N1 and H3N2 types); conditions: for activity against influenza A strains (in words): MDCK cells, H1N1 and H3N2; for ratio of CC50 to EC50 (selectivity): both determined by MTS assay, at best
Description: (§5) The process of CPE reduction assay for the influenza virus was described previously. The virus strains were A/Virginia/ATCC3/2009, A/PR/8 (A/H1N1), A/Victoria/361/11, A/HK/7/87 (A/H3N2), and B/Ned/537/05 (IBV). On day 0, Madin-Darby canine kidney (MDCK) cells in 96-well plates were infected with influenza virus at a multiplicity of infection (MOI) of 0.0004 plaque forming units (PFU) per cell, and that was incubated at 35 °C for 3 days. After the third day, virus-induced CPE and compound cytotoxicity were scored by microscopy, and the data were confirmed by formazan-based MTS cell viability assay (CellTiter 96® AQueous One Solution Cell Proliferation Assay from Promega, Madison, WI, USA). […] Compound cytotoxicity was expressed as the concentration of the compound causing minimal changes in cell morphology (MCC) and 50% cytotoxic concentration (CC50) based on the MTS assay.

[4] = in vitro; conditions: dog
[5] = test system: Madin-Darby canine kidney (MDCK) cells; conditions: dog, 3 days
[6] = test system: IBV; test: CPE reduction assay, influenza B in MDCK cells; format: cell-based, influenza B virus (B/Ned/537/05); conditions: Influenza B virus, 72 h
Description: as §5

[7] = target: H1N1 Hemagglutinin (Influenza A virus, UniProt P03452); test: SPR affinity toward immobilized H1N1 hemagglutinin; format: binding, influenza type H1N1 (A/Puerto Rico/8/34); conditions: for Kd: KD(app)
Description: as §1, §2, §3, §4

[8] = target: H1N1 Neuraminidase (Influenza A virus, UniProt C3W5S3); test: SPR affinity toward immobilized H1N1 neuraminidase; format: binding, influenza H1N1 (A/California/04/2009); conditions: PBST with 5% DMSO, 25 °C
Description: as §1, §2, §4

[9] = test system: IAV (A/H3N2); test: CPE reduction assay, influenza A/H3N2 in MDCK cells; format: cell-based, influenza A virus A/H3N2 (A/Victoria/361/11 or A/HK/7/87); conditions: Influenza A virus, H3N2, 72 h
Description: as §5

[10] = Dynamic light scattering of aggregates; conditions: RSD of 3 measurements in brackets
[11] = test system: IAV (A/H1N1); test: CPE reduction assay, influenza A/H1N1 in MDCK cells; format: cell-based, influenza A virus A/H1N1 (A/Virginia/ATCC3/2009 or A/PR/8); conditions: Influenza A virus, H1N1, 72 h
Description: as §5

[12] = test system: viral neuraminidase; conditions: cited from earlier work
[13] = H3N2 Hemagglutinin, PBST with 5% DMSO, 25 °C, steady-state single-site fit
[14] = H3N2 hemagglutinin, absence of DMSO, DMSO-free running buffer
[15] = MTS cell viability assay, day 3, read-out: Antiviral EC50, IBV, MTS
[16] = microscopic scoring of cytopathic effect, day 3, read-out: Antiviral EC50, IBV, CPE
[17] = H1N1 Hemagglutinin, PBST with 5% DMSO, 25 °C, steady-state single-site fit
[18] = H1N1 hemagglutinin, absence of DMSO, DMSO-free running buffer
[19] = MTS cell viability assay, day 3, read-out: Antiviral EC50, IAV (A/H3N2), MTS
[20] = microscopic scoring of cytopathic effect, day 3, read-out: Antiviral EC50, IAV (A/H3N2), CPE
[21] = 0.1 mg/mL (diluted with water), 25 °C
[22] = 1 mg/mL in water/DMSO 9:1, 25 °C
[23] = MTS cell viability assay, day 3, read-out: Antiviral EC50, IAV (A/H1N1), MTS
[24] = microscopic scoring of cytopathic effect, day 3, read-out: Antiviral EC50, IAV (A/H1N1), CPE

Sequence of H1N1 Hemagglutinin (P03452 18-565): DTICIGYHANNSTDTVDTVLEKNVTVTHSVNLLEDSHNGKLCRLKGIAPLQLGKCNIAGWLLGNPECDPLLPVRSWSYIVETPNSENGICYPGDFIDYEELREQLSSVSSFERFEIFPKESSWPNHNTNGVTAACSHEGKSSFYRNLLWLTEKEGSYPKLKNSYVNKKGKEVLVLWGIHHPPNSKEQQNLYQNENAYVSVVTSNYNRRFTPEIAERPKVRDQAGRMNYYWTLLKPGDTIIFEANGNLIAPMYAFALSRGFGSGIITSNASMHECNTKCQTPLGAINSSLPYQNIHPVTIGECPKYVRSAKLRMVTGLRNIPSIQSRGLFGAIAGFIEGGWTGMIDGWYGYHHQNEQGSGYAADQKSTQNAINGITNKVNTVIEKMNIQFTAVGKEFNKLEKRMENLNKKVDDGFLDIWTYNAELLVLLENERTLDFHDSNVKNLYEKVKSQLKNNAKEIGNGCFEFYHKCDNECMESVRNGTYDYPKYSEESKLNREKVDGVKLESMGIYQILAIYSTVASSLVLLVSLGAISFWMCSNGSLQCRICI

Compound | activity against influenza A strains (in words) [3] | CC50 [4] [µM] | Cytotoxicity MCC (minimum cytotoxic concentration) [5] | EC50 [6, 15] [µM] | EC50 [6, 16] [µM] | EC50 [9, 19] [µM] | EC50 [9, 20] [µM] | EC50 [11, 23] [µM] | EC50 [11, 24] [µM] | also measured
CO[C@]1(C(=O)O)C[C@H](O)[C@@H](NC(C)=O)[C@H]([C@H](O)[C@H](O)CO)O1 [Methyl α-glycoside of sialic acid] |  |  |  |  |  |  |  |  |  | binding to hemagglutinin (in words) [1]: bind weakly
CCCCCCCCOC1C(OC)OC(COCCOCCOCCOCCn2cc(CSC3(C(=O)O)CC(O)C(NC(C)=O)C(C(O)C(O)CO)O3)nn2)C(OCc2ccc(OC)cc2)C1OCCCCCCCC (centres unmarked) [Compound 12b] | effective; also recorded: moderate effect | 34 ± 13 | 39 ± 20 µM | > 100 | > 100 | 8.7 ± 3.6 | 8.9 | 15 ± 5 | 8.9 | Rmax, H3N2 hemagglutinin, absence of DMSO ([2]; DMSO-free running buffer): 454 ± 39 RU; Kd [2, 13]: 124 ± 21 µM; Kd [2, 14]: 279 ± 98 µM; Rmax, H3N2 Hemagglutinin ([2]; PBST with 5% DMSO, 25 °C): 135 ± 11 RU; ratio of CC50 to EC50 (selectivity) [3]: ≤ 4 factor; Rmax, H1N1 hemagglutinin, absence of DMSO ([7]; DMSO-free running buffer): 305 ± 30 RU; Kd [7, 17]: 161 ± 20 µM; Kd [7, 18]: 187 ± 41 µM; Rmax, H1N1 Hemagglutinin ([7]; PBST with 5% DMSO, 25 °C): 130 ± 12 RU; Rmax, H1N1 Neuraminidase [8]: 175 ± 23 RU; d (average diameter of particles, DLS) [10, 21]: 108 (13.4%) ^a nm; d (average diameter of particles, DLS) [10, 22]: 96 (1.19%) ^a nm
CCCCOC1C(OC)OC(COCCOCCOCCOCCn2cc(CSC3(C(=O)O)CC(O)C(NC(C)=O)C(C(O)C(O)CO)O3)nn2)C(OCc2ccc(OC)cc2)C1OCCCC (centres unmarked) [Compound 12c] |  | > 100 | 100 ± 0 µM | > 100 | > 100 | > 100 | > 100 | > 100 | > 100 | d (average diameter of particles, DLS) [10, 21]: 111 (14.2%) ^a nm; d (average diameter of particles, DLS) [10, 22]: 103 (28.3%) ^a nm
COC1(C(=O)O)CC(O)C(NC(C)=O)C(C(O)C(O)CO)O1 (stereo not drawn) [methyl β-glycoside] |  |  |  |  |  |  |  |  |  | binding to hemagglutinin (in words) [1]: does not bind at all
CCCCCCOCC1OC(OCCOCCOCCOCCOCCCSC2(C(=O)O)CC(O)C(NC(C)=O)C(C(O)C(O)CO)O2)C=CC1OCCCCCC (centres unmarked) [Compound 23b] | ineffective | > 100 | >100 µM | > 100 | > 100 | > 100 | > 100 | > 100 | > 100 | 
CCCCCCCCOCC1OC(OCCOCCOCCOCCOCCCSC2(C(=O)O)CC(O)C(NC(C)=O)C(C(O)C(O)CO)O2)C=CC1OCCCCCCCC (centres unmarked) [Compound 23a] | no anti-influenza effect | 54 | 40 ^d µM | > 100 | > 100 | > 100 | > 100 | > 100 | > 100 | Rmax, H3N2 hemagglutinin, absence of DMSO ([2]; DMSO-free running buffer): 200 ± 23 RU; Kd [2, 13]: 1220 ± 737 µM; Kd [2, 14]: 134 ± 48 µM; Rmax, H3N2 Hemagglutinin ([2]; PBST with 5% DMSO, 25 °C): 148 ± 43 RU; Rmax, H1N1 hemagglutinin, absence of DMSO ([7]; DMSO-free running buffer): 197 ± 24 RU; Kd [7, 17]: 6220 ± 4040 µM; Kd [7, 18]: 106 ± 36 µM; Rmax, H1N1 Hemagglutinin ([7]; PBST with 5% DMSO, 25 °C): 505 ± 275 RU; Rmax, H1N1 Neuraminidase [8]: 74 ± 13 RU
CCCCCCCCCCOCC1OC(CCCSC2(C(=O)O)CC(O)C(NC(C)=O)C(C(O)C(O)CO)O2)C=CC1OCCCCCCCCCC (centres unmarked) [Compound 18a] |  | 10 | 20 ^d µM | > 100 | > 100 | > 100 | > 100 | > 100 | > 100 | 
CCCCCCCCOCC1OC(CCCSC2(C(=O)O)CC(O)C(NC(C)=O)C(C(O)C(O)CO)O2)C=CC1OCCCCCCCC (centres unmarked) [Compound 18b] | effective; also recorded: moderate effect | 32 ± 8 | 63 ± 19 µM | > 100 | > 100 | 6.2 ± 3 | 4.8 ± 1 | 23 | 25 | Rmax, H3N2 hemagglutinin, absence of DMSO ([2]; DMSO-free running buffer): 925 ± 23 RU; Kd [2, 14]: 357 ± 23 µM; ratio of CC50 to EC50 (selectivity) [3]: ≤ 5 factor; Rmax, H1N1 hemagglutinin, absence of DMSO ([7]; DMSO-free running buffer): 783 ± 8 RU; Kd [7, 18]: 286 ± 19 µM; Rmax, H1N1 Neuraminidase [8]: 166 ± 53 RU
CCCCCCOCC1OC(CCCSC2(C(=O)O)CC(O)C(NC(C)=O)C(C(O)C(O)CO)O2)C=CC1OCCCCCC (centres unmarked) [Compound 18c] |  | > 100 | 100 ^d µM | > 100 | > 100 | > 100 | > 100 | > 100 | > 100 | 
CC(=O)NC1C(OC(=O)CNS(=O)(=O)c2cccc3c(N(C)C)cccc23)CC(OCCCCCCC(=O)NCc2cccc3ccccc23)(C(=O)O)OC1C(O)C(O)CO (centres unmarked) [Compound 2] |  |  |  |  |  |  |  |  |  | substrate for viral neuraminidase (in words) [12]: not a substrate; affinity for hemagglutinin (in words) [1]: high affinity
CCCCCCCCCCOC1C(OC)OC(COCCOCCOCCOCCn2cc(CSC3(C(=O)O)CC(O)C(NC(C)=O)C(C(O)C(O)CO)O3)nn2)C(OCc2ccc(OC)cc2)C1OCCCCCCCCCC (centres unmarked) [Compound 12a] |  | 64 | 20 ^d µM | > 100 | > 100 | > 100 | > 100 | > 100 | > 100 | d (average diameter of particles, DLS) [10, 21]: 170 (15.8%) ^a nm; d (average diameter of particles, DLS) [10, 22]: 126 (2.00%) ^a nm
NC(=O)c1ncn([C@@H]2O[C@H](CO)[C@@H](O)[C@H]2O)n1 [Ribavirin, reference compound] |  | > 250 |  | 5.4 | 10 ± 4 | 24 ± 4 | 30 ± 6 | 25 ± 2 | 24 ± 6 | 
